From EP0547317A1, “Endothelin antagonists” (TAKEDA CHEMICAL INDUSTRIES, LTD., priority 1991, dated 1993)
Bridge positions count the residues as written; N and C are the ends. Square brackets hold non-standard residues; d marks the D form. Peptide text beside a SMILES is read from it. tBuAla = CC(C)(C)C[C@H](N)C(=O)O; Cha = N[C@@H](CC1CCCCC1)C(=O)O

Test system: porcine coronary smooth muscles
Experiment: Assay of constrictor suppressing activity on porcine coronary smooth muscles (antagonism of endothelin-1 constriction)
Assay type: cell-based
Conditions: for pA₂: antagonistic activity on constriction by endothelin-1 given cumulatively about 15 minutes after the compound, negative logarithm of molar concentration of antagonist shifting the dose response curve by a factor of 2; for Relative potency: antagonistic activity on the constriction of porcine coronary smooth muscles, Example 1 = 100
Description: • (1) Assay of Constrictor Suppressing Activity on Porcine Coronary Smooth Muscles Spiral strips 2 mm x 15 mm prepared from the coronary right ramus circumflexus from which the adventitial connective tissues and the endothelial cells were removed were set to 4 ml organ baths. The tension of each strip was detected by a force displacement transducer UL-10GR (Minebea), and recorded by a polygraph (NEC Sanei). The organ baths were maintained at 37°C, and filled with a Krebs-Henseleit solution (composition: 118 mM NaCl, 4.7 mM KCl, 2.5 mM CaCl₂, 1.2 mM KH₂PO₄, 25.0 mM NaHCO₃, 1.2 mM MgSO₄, 10.0 mM glucose) gassed with 95% O₂ and 5% CO₂. A tension of 1.25 to 1.5 g was applied to each of the strips, followed by equilibration for 1.5 hours. 60 mM KCl was repeatedly applied thereto at intervals of 30 minutes until the constriction response became constant. After additional equilibration for 1.5 hours, a sample for assay was given thereto. The constriction of the strips was normalized by the constriction response of the individual strips to 60 mM KCl and statistically processed. The suppressing activity was determined as a pA₂ value by giving endothelin-1 cumulatively about 15 minutes after the compound having a predetermined concentration was given, and comparing the constriction thereof with that of a control sample in which only endothelin-1 was given. […] Such a case has not been reported yet. […] The affinity for the receptor was assayed by the following method.

Structure (SMILES): CC[C@H](C)[C@H](NC(=O)[C@H](Cc1ccccc1)NC(=O)[C@@H](NC(=O)[C@H](CC(C)C)NC(=O)[C@H](Cc1c[nH]cn1)NC(=O)[C@@H]1CSSC[C@H](N)C(=O)N[C@@H](CO)C(=O)N[C@H]2CSSC[C@H](NC(=O)[C@H](CCC(=O)O)NC(=O)[C@H](CCCCN)NC(=O)[C@H](CC(=O)O)NC(=O)[C@H](CCSC)NC(=O)[C@H](CC(C)C)NC(=O)[C@H](CO)NC(=O)[C@H](CO)NC2=O)C(=O)N[C@@H](C(C)C)C(=O)N[C@@H](Cc2ccc(O)cc2)C(=O)N[C@@H](Cc2ccccc2)C(=O)N1)[C@@H](C)O)C(=O)N[C@@H](Cc1c[nH]c2ccccc12)C(=O)O [Example 3, [Thr¹⁸, Phe¹⁹]-ET-1] (H-CSCSSLMDKECVYFCHLTFIW-OH; disulfide 1-15, 3-11)
- pA₂: 7.2
- Relative potency: 32

Structure (SMILES): CC[C@H](C)[C@H](NC(=O)[C@H](CC(C)C)NC(=O)[C@@H](NC(=O)[C@H](CC(C)C)NC(=O)[C@H](Cc1c[nH]cn1)NC(=O)[C@@H]1CSSC[C@H](N)C(=O)N[C@@H](CO)C(=O)N[C@H]2CSSC[C@H](NC(=O)[C@H](CCC(=O)O)NC(=O)[C@H](C)NC(=O)[C@H](CC(=O)O)NC(=O)[C@H](CCSC)NC(=O)[C@H](CC(C)C)NC(=O)[C@H](CO)NC(=O)[C@H](CO)NC2=O)C(=O)N[C@@H](C(C)C)C(=O)N[C@@H](Cc2ccc(O)cc2)C(=O)N[C@@H](Cc2ccccc2)C(=O)N1)[C@@H](C)O)C(=O)N[C@@H](Cc1c[nH]c2ccccc12)C(=O)O [Example 10, [Ala⁹, Thr¹⁸, Leu¹⁹]-ET-1] (H-CSCSSLMDAECVYFCHLTLIW-OH; disulfide 1-15, 3-11)
- pA₂: 5.9
- Relative potency: 1.6

Structure (SMILES): CC[C@H](C)[C@H](NC(=O)[C@H](CC(C)C)NC(=O)[C@@H](NC(=O)[C@H](CC(C)C)NC(=O)[C@H](Cc1c[nH]cn1)NC(=O)[C@@H]1CSSC[C@H](N)C(=O)N[C@@H](CO)C(=O)N[C@H]2CSSC[C@H](NC(=O)[C@H](CCC(=O)O)NC(=O)[C@H](CCCCN)NC(=O)[C@H](CC(=O)O)NC(=O)[C@H](CCSC)NC(=O)[C@H](CC(C)C)NC(=O)[C@H](CO)NC(=O)[C@H](C)NC2=O)C(=O)N[C@@H](C(C)C)C(=O)N[C@@H](Cc2ccc(O)cc2)C(=O)N[C@@H](Cc2ccccc2)C(=O)N1)[C@@H](C)O)C(=O)N[C@@H](Cc1c[nH]c2ccccc12)C(=O)O [Example 13, [Ala⁴, Thr¹⁸, Leu¹⁹]-ET-1] (H-CSCASLMDKECVYFCHLTLIW-OH; disulfide 1-15, 3-11)
- pA₂: 6.9
- Relative potency: 16

Structure (SMILES): CC[C@H](C)[C@H](NC(=O)[C@H](CC(C)C)NC(=O)[C@H](CO)NC(=O)[C@H](CC(C)C)NC(=O)[C@H](Cc1c[nH]cn1)NC(=O)[C@@H]1CSSC[C@H](N)C(=O)N[C@@H](CO)C(=O)N[C@H]2CSSC[C@H](NC(=O)[C@H](CCC(=O)O)NC(=O)[C@H](CCCCN)NC(=O)[C@H](CC(=O)O)NC(=O)[C@H](CCSC)NC(=O)[C@H](CC(C)C)NC(=O)[C@H](CO)NC(=O)[C@H](CO)NC2=O)C(=O)N[C@@H](C(C)C)C(=O)N[C@@H](Cc2ccc(O)cc2)C(=O)N[C@@H](Cc2ccccc2)C(=O)N1)C(=O)N[C@@H](Cc1c[nH]c2ccccc12)C(=O)O [Example 6, [Ser¹⁸, Leu¹⁹]-ET-1] (H-CSCSSLMDKECVYFCHLSLIW-OH; disulfide 1-15, 3-11)
- pA₂: 7.5
- Relative potency: 63

Structure (SMILES): CC[C@H](C)[C@H](NC(=O)[C@H](CC(C)C)NC(=O)[C@@H](NC(=O)[C@H](CC(C)C)NC(=O)[C@H](Cc1c[nH]cn1)NC(=O)[C@@H]1CSSC[C@H](N)C(=O)N[C@@H](C)C(=O)N[C@H]2CSSC[C@H](NC(=O)[C@H](CCC(=O)O)NC(=O)[C@H](CCCCN)NC(=O)[C@H](CC(=O)O)NC(=O)[C@H](CCSC)NC(=O)[C@H](CC(C)C)NC(=O)[C@H](CO)NC(=O)[C@H](CO)NC2=O)C(=O)N[C@@H](C(C)C)C(=O)N[C@@H](Cc2ccc(O)cc2)C(=O)N[C@@H](Cc2ccccc2)C(=O)N1)[C@@H](C)O)C(=O)N[C@@H](Cc1c[nH]c2ccccc12)C(=O)O [Example 12, [Ala², Thr¹⁸, Leu¹⁹]-ET-1] (H-CACSSLMDKECVYFCHLTLIW-OH; disulfide 1-15, 3-11)
- pA₂: 6.7
- Relative potency: 10

Structure (SMILES): CC[C@H](C)[C@H](NC(=O)[C@H](CC(C)C)NC(=O)[C@@H](NC(=O)[C@H](CC(C)C)NC(=O)[C@H](Cc1c[nH]cn1)NC(=O)[C@@H]1CSSC[C@H](N)C(=O)N[C@@H](CO)C(=O)N[C@H]2CSSC[C@H](NC(=O)[C@H](CCC(=O)O)NC(=O)[C@H](CCCCN)NC(=O)[C@H](CC(=O)O)NC(=O)[C@H](CCSC)NC(=O)[C@H](CC(C)C)NC(=O)[C@H](CO)NC(=O)[C@H](CO)NC2=O)C(=O)N[C@@H](C(C)C)C(=O)N[C@@H](Cc2ccc(O)cc2)C(=O)N[C@@H](Cc2ccccc2)C(=O)N1)[C@@H](C)O)C(=O)N[C@@H](Cc1c[nH]c2ccccc12)C(=O)O [Example 1, [Thr¹⁸, Leu¹⁹]-ET-1] (H-CSCSSLMDKECVYFCHLTLIW-OH; disulfide 1-15, 3-11)
- pA₂: 7.7
- Relative potency: 100

Structure (SMILES): CC[C@H](C)[C@H](NC(=O)[C@H](CC1CCCCC1)NC(=O)[C@@H](NC(=O)[C@H](CC(C)C)NC(=O)[C@H](Cc1c[nH]cn1)NC(=O)[C@@H]1CSSC[C@H](N)C(=O)N[C@@H](CO)C(=O)N[C@H]2CSSC[C@H](NC(=O)[C@H](CCC(=O)O)NC(=O)[C@H](CCCCN)NC(=O)[C@H](CC(=O)O)NC(=O)[C@H](CCSC)NC(=O)[C@H](CC(C)C)NC(=O)[C@H](CO)NC(=O)[C@H](CO)NC2=O)C(=O)N[C@@H](C(C)C)C(=O)N[C@@H](Cc2ccc(O)cc2)C(=O)N[C@@H](Cc2ccccc2)C(=O)N1)[C@@H](C)O)C(=O)N[C@@H](Cc1c[nH]c2ccccc12)C(=O)O [Example 2, [Thr¹⁸, Cha¹⁹]-ET-1] (H-CSCSSLMDKECVYFCHLT[Cha]IW-OH; disulfide 1-15, 3-11)
- pA₂: 7.7
- Relative potency: 100

Structure (SMILES): CC[C@H](C)[C@H](NC(=O)[C@H](CC(C)C)NC(=O)[C@@H](NC(=O)[C@H](CC(C)C)NC(=O)[C@H](Cc1c[nH]cn1)NC(=O)[C@@H]1CSSC[C@H](N)C(=O)N[C@@H](CO)C(=O)N[C@H]2CSSC[C@H](NC(=O)[C@H](CCC(=O)O)NC(=O)[C@H](CCCCN)NC(=O)[C@H](CC(=O)O)NC(=O)[C@H](C)NC(=O)[C@H](CC(C)C)NC(=O)[C@H](CO)NC(=O)[C@H](CO)NC2=O)C(=O)N[C@@H](C(C)C)C(=O)N[C@@H](Cc2ccc(O)cc2)C(=O)N[C@@H](Cc2ccccc2)C(=O)N1)[C@@H](C)O)C(=O)N[C@@H](Cc1c[nH]c2ccccc12)C(=O)O [Example 16, [Ala⁷, Thr¹⁸, Leu¹⁹]-ET-1] (H-CSCSSLADKECVYFCHLTLIW-OH; disulfide 1-15, 3-11)
- pA₂: 7.2
- Relative potency: 32

Structure (SMILES): CC[C@H](C)[C@H](NC(=O)[C@H](CC(C)(C)C)NC(=O)[C@@H](NC(=O)[C@H](CC(C)C)NC(=O)[C@H](Cc1c[nH]cn1)NC(=O)[C@@H]1CSSC[C@H](N)C(=O)N[C@@H](CO)C(=O)N[C@H]2CSSC[C@H](NC(=O)[C@H](CCC(=O)O)NC(=O)[C@H](CCCCN)NC(=O)[C@H](CC(=O)O)NC(=O)[C@H](CCSC)NC(=O)[C@H](CC(C)C)NC(=O)[C@H](CO)NC(=O)[C@H](CO)NC2=O)C(=O)N[C@@H](C(C)C)C(=O)N[C@@H](Cc2ccc(O)cc2)C(=O)N[C@@H](Cc2ccccc2)C(=O)N1)[C@@H](C)O)C(=O)N[C@@H](Cc1c[nH]c2ccccc12)C(=O)O [Example 4, [Thr¹⁸, γLeu¹⁹]-ET-1] (H-CSCSSLMDKECVYFCHLT[tBuAla]IW-OH; disulfide 1-15, 3-11)
- pA₂: 7.4
- Relative potency: 50

Structure (SMILES): CC[C@H](C)[C@H](NC(=O)[C@H](CC(C)C)NC(=O)CNC(=O)[C@H](CC(C)C)NC(=O)[C@H](Cc1c[nH]cn1)NC(=O)[C@@H]1CSSC[C@H](N)C(=O)N[C@@H](CO)C(=O)N[C@H]2CSSC[C@H](NC(=O)[C@H](CCC(=O)O)NC(=O)[C@H](CCCCN)NC(=O)[C@H](CC(=O)O)NC(=O)[C@H](CCSC)NC(=O)[C@H](CC(C)C)NC(=O)[C@H](CO)NC(=O)[C@H](CO)NC2=O)C(=O)N[C@@H](C(C)C)C(=O)N[C@@H](Cc2ccc(O)cc2)C(=O)N[C@@H](Cc2ccccc2)C(=O)N1)C(=O)N[C@@H](Cc1c[nH]c2ccccc12)C(=O)O [Example 8, [Gly¹⁸, Leu¹⁹]-ET-1] (H-CSCSSLMDKECVYFCHLGLIW-OH; disulfide 1-15, 3-11)
- pA₂: 6.7
- Relative potency: 10

Structure (SMILES): CC[C@H](C)[C@H](NC(=O)[C@H](CC(C)C)NC(=O)[C@@H](NC(=O)[C@H](CC(C)C)NC(=O)[C@H](Cc1c[nH]cn1)NC(=O)[C@@H]1CSSC[C@H](N)C(=O)N[C@@H](CO)C(=O)N[C@H]2CSSC[C@H](NC(=O)[C@H](CCC(=O)O)NC(=O)[C@H](CCCCN)NC(=O)[C@H](CC(=O)O)NC(=O)[C@H](CCSC)NC(=O)[C@H](CC(C)C)NC(=O)[C@H](C)NC(=O)[C@H](CO)NC2=O)C(=O)N[C@@H](C(C)C)C(=O)N[C@@H](Cc2ccc(O)cc2)C(=O)N[C@@H](Cc2ccccc2)C(=O)N1)[C@@H](C)O)C(=O)N[C@@H](Cc1c[nH]c2ccccc12)C(=O)O [Example 14, [Ala⁵, Thr¹⁸, Leu¹⁹]-ET-1] (H-CSCSALMDKECVYFCHLTLIW-OH; disulfide 1-15, 3-11)
- pA₂: 5.5
- Relative potency: 0.6
